Data taken from ChEMBL document CHEMBL5653603 (J Am Chem Soc, 2010).
Activity calls are given as the source filed them. The rule behind the calls is not given here.

Assays:
[1] = target: T1, Protein deacetylase HDAC6 (Homo sapiens, UniProt Q9UBN7); experiment: Inhibition of recombinant human HDAC6 using fluorogenic RHKKAc peptide as substrate by fluorescence assay
T1 sequence (Q9UBN7 whole entry): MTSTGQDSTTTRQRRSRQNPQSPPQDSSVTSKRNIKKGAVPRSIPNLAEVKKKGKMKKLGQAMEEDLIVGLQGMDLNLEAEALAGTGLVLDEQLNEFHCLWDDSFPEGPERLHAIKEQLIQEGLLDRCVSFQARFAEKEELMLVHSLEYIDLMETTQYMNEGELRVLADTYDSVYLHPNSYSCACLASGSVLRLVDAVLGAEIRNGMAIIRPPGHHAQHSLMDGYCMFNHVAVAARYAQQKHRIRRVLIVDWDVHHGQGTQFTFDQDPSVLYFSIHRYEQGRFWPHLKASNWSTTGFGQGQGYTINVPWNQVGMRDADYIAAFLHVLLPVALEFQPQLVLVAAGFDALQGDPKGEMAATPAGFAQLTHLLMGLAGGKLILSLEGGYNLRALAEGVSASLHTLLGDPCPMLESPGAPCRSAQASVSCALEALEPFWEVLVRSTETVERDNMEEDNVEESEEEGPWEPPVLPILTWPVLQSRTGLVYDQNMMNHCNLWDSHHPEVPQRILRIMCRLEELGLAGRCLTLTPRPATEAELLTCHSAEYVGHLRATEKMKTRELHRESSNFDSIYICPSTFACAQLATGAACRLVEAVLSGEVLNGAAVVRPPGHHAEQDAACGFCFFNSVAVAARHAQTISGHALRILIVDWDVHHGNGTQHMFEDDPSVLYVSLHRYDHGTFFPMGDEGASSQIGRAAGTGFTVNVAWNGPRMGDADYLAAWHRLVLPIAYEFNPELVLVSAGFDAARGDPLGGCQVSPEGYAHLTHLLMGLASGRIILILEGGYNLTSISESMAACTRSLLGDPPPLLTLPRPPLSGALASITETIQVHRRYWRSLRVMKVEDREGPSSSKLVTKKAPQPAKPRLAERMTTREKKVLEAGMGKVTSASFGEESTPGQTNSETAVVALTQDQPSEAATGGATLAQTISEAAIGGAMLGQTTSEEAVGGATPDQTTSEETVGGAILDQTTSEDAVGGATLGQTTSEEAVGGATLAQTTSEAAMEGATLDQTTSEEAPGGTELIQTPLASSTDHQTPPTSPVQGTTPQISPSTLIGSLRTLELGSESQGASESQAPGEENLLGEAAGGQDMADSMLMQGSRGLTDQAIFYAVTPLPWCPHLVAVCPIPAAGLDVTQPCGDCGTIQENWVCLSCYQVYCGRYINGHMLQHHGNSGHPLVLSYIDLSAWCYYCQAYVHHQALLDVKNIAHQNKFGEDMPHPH

Histone deacetylase 1 = Histone deacetylase 1 (Homo sapiens, UniProt Q13547); experiment: Inhibition of recombinant human HDAC1 using fluorogenic RHKKAc peptide as substrate by fluorescence assay; type: single protein
Sequence of Histone deacetylase 1 (Q13547 whole entry): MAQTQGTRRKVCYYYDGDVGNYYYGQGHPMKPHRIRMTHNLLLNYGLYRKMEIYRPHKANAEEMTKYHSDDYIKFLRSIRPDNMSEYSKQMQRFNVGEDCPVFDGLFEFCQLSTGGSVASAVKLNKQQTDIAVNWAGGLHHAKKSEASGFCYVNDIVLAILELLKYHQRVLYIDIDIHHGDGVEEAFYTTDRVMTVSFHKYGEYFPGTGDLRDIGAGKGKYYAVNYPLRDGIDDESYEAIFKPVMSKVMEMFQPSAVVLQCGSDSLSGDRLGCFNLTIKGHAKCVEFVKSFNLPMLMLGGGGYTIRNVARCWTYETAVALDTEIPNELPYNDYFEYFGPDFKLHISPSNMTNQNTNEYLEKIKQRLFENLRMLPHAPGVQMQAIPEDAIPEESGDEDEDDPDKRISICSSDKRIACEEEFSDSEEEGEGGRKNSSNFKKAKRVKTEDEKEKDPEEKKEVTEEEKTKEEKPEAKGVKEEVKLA

Primary cortical neuron = experiment: Inhibition of HDAC6 in Sprague-Dawley rat primary cortical neurons assessed as induction of alpha-tubulin hyperacetylation at 2.5 uM measured after 30 mins by Western blot analysis; type: cell-based
Homo sapiens = species on record: Homo sapiens; experiment: Selectivity ratio of IC50 for recombinant human HDAC1 to IC50 for recombinant human HDAC6
Cortical neurone [2] = experiment: Neuroprotective activity against HCA-induced Sprague-Dawley rat primary cortical neuron death assessed as increase in neuron survival at 0.5 uM measured after 24 hrs by MTT assay; type: functional, cell-based
[3] = Neurotoxicity against Sprague-Dawley rat primary cortical neurons assessed as reduction in neuron survival at 1 to 10 uM measured after 24 hrs by MTT assay; type: toxicity, cell-based; conditions: cortical neurone, dose 1-10 µM
Cortical neurone [4] = experiment: Neuroprotective activity against HCA-induced Sprague-Dawley rat primary cortical neuron death assessed as increase in neuron survival measured after 24 hrs by MTT assay; type: functional, cell-based; conditions: dose 1-10 µM
[5] = Inhibition of class 1 HDAC in Sprague-Dawley rat primary cortical neurons assessed as induction of histone hyperacetylation at 10 uM measured after 30 mins by Western blot analysis; type: cell-based; conditions: primary cortical neuron, 0.5 h

## O=C(CCCCCn1c2c(c3ccccc31)CCCC2)NO
[1]
  IC50: 0.09 µM
Histone deacetylase 1
  IC50: 8.6 µM

## O=C(CCn1c2ccccc2c2ccccc21)NO
Histone deacetylase 1
  IC50: > 30 µM

## O=C(CCCCCCC(=O)Nc1ccc([C@H]2O[C@@H](CSc3nc(-c4ccccc4)c(-c4ccccc4)o3)C[C@@H](c3ccc(CO)cc3)O2)cc1)NO
Primary cortical neuron
  inhibition: Active

## O=C(NO)c1ccc(CCn2c3ccccc3c3ccccc32)cc1
[1]
  IC50: 0.18 µM
Histone deacetylase 1
  IC50: > 30 µM

## O=C(NO)c1ccc(Cn2c3ccccc3c3ccccc32)cc1
Homo sapiens
  Ratio IC50: 574
Histone deacetylase 1
  IC50: 10.9 µM

## CN1CCc2c(n(Cc3ccc(C(=O)NO)cc3)c3ccccc23)C1
Homo sapiens
  Ratio IC50: 3700
[1]
  IC50: 0.001 µM
Histone deacetylase 1
  IC50: 5.18 µM

## O=C(NO)n1c2ccccc2c2ccccc21
[1]
  IC50: > 30 µM
Histone deacetylase 1
  IC50: > 30 µM

## CC(/C=C/C(=O)NO)=C\[C@@H](C)C(=O)c1ccc(N(C)C)cc1 [TRICHOSTATIN]
Cortical neurone [2]
  Activity: Active
[3]
  Activity: Toxic

## CN1CCc2c(c3ccccc3n2CCCCCC(=O)NO)C1
[1]
  IC50: 0.213 µM
Histone deacetylase 1
  IC50: 25.2 µM

## O=C(CCCCCn1c2ccccc2c2ccccc21)NO
Homo sapiens
  Ratio IC50: 226
[1]
  IC50: 0.062 µM
Histone deacetylase 1
  IC50: 14 µM

## CN1CCc2c(n(CCCCCC(=O)NO)c3ccccc23)C1
[1]
  IC50: 0.55 µM
Histone deacetylase 1
  IC50: > 30 µM

## O=C(Cc1ccc(Cn2c3ccccc3c3ccccc32)cc1)NO
[1]
  IC50: 0.301 µM
Histone deacetylase 1
  IC50: > 30 µM

## CN1CCc2c(c3ccccc3n2Cc2ccc(C(=O)NO)cc2)C1.O=C(O)C(F)(F)F
[3]
  Activity: Non-Toxic
Cortical neurone [4]
  Activity: Dose-Dependent Effect
Primary cortical neuron
  inhibition: Active
[5]
  inhibition (INH): Active
